This passage reports IC50 results from patent US9751858B2, “3-heteroaroylamino-propionic acid derivatives and their use as pharmaceuticals” (SANOFI, priority 2011, dated 2017).

The target of the assay is T1, Recombinant human cathepsin A (Homo sapiens, UniProt P10619).
T1 construct: Recombinant human cathepsin A (residues 29-480, with a C-terminal 10-His tag); 10-His (C); purchased R&D Systems 1049-SE
T1 sequence (P10619 29-326 limits assumed): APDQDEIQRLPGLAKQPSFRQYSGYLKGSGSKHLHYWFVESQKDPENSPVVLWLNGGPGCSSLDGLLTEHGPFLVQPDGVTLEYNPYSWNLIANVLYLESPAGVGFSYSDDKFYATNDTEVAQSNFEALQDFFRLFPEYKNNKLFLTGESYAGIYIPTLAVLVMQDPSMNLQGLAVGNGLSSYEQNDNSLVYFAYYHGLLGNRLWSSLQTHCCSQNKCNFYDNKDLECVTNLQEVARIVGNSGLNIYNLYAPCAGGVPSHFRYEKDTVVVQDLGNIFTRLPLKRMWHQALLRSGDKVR
T1 sequence (P10619 327-480 limits assumed): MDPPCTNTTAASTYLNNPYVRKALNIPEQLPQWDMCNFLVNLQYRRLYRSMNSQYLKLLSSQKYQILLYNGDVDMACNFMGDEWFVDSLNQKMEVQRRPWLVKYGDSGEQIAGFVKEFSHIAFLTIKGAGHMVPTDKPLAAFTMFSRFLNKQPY
Description: Cathepsin A inhibitory activity. Format: biochemical. As to conditions: activated recombinant human cathepsin A 833 ng/ml, Bodipy FL-labeled bradykinin 2 μM, pH 5.5, 15 min room temperature. The method, then:
a) Cathepsin a Inhibitory Activity
Briefly, cathepsin A was incubated at 10 μg/ml with cathepsin L at 1 μg/ml in activation buffer (25 mM 2-(morpholin-4-yl)-ethanesulfonic acid (MES), pH 6.0, containing 5 mM dithiothreitol (DTT)) for 15 min at 37° C.
The activated cathepsin A was diluted in assay buffer (25 mM MES, pH 5.5, containing 5 mM DTT) and mixed with the test compound (dissolved in assay buffer containing (v/v) 3% DMSO) or, in the control experiments, with the vehicle in a multiple assay plate. After incubation for 15 min at room temperature, as substrate then bradykinin carrying an N-terminal ®Bodipy FL (4,4-difluoro-5,7-dimethyl-4-bora-3a,4a-diaza-s-indacene-3-propionyl) label (JPT Peptide Technologies GmbH; dissolved in assay buffer) was added to the mixture. […] After incubation for 15 min at room temperature the reaction was stopped by the addition of stop buffer (130 mM 2-(4-(2-hydroxy-ethyl)-piperazin-1-yl)-ethanesulfonic acid, pH 7.4, containing (v/v) 0.013%® Triton X-100, 0.13% Coating Reagent 3 (Caliper Life Sciences), 6.5% DMSO and 20 μM ebelactone B (Sigma, # E0886)).
Uncleaved substrate and product were then separated by a microfluidic capillary electrophoresis on a LabChip® 3000 Drug Discovery System (12-Sipper-Chip; Caliper Life Sciences) and quantified by determination of the respective peak areas. Substrate turnover was calculated by dividing product peak area by the sum of substrate and product peak areas, and the enzyme activity and the inhibitory effect of the test compound thus quantified.

What is called IC50 is the concentration that inhibits the measured activity by half. As for `Cc1ccccc1[C@H](CC(=O)O)NC(=O)c1nn(C)cc1NS(=O)(=O)CCc1ccccc1` [Example 121, (S)-3-{[1-Methyl-4-(2-phenyl-ethanesulfonylamino)-1H-pyrazole-3-carbonyl]-amino}-3-o-tolyl-propionic acid], the IC50 is over 10 µM.
Then `O=C(N[C@@H](Cc1ccc(Cl)cc1)C(=O)O)c1noc(-c2cnccc2C(F)(F)F)n1` [Example 99, (S)-3-(4-Chloro-phenyl)-2-{[5-(4-trifluoromethyl-pyridin-3-yl)-[1,2,4]oxadiazole-3-carbonyl]-amino}-propionic acid], with over 10 µM; and `COc1ccc([C@H](CC(=O)O)NC(=O)c2nc(-c3ccccc3)oc2C)cc1` [Example 23, (S)-3-(4-Methoxy-phenyl)-3-[(5-methyl-2-phenyl-oxazole-4-carbonyl)-amino]-propionic acid], with 2.39 µM.
The figure for `COc1cccc([C@H](CC(=O)O)NC(=O)c2nc(-c3ccccc3)oc2C(C)C)c1` [Example 65, (S)-3-[(5-Isopropyl-2-phenyl-oxazole-4-carbonyl)-amino]-3-(3-methoxy-phenyl)-propionic acid] is over 10 µM.
Take `Cc1oc(-c2ccccc2F)nc1C(=O)N[C@@H](CC(=O)O)c1ccc(Cl)cc1` [Example 63, (S)-3-(4-Chloro-phenyl)-3-{[2-(2-fluoro-phenyl)-5-methyl-oxazole-4-carbonyl]-amino}-propionic acid]: the IC50 came out at 3.41 µM.
As to `Cc1ccccc1[C@H](CC(=O)O)NC(=O)CCc1nc(-c2ccccc2F)no1` [Example 53, (S)-3-{3-[3-(2-Fluoro-phenyl)-[1,2,4]oxadiazol-5-yl]-propionylamino}-3-o-tolyl-propionic acid], the IC50 is over 10 µM.
As for `O=C(O)C[C@H](NC(=O)c1noc(-c2ccccc2F)n1)c1ccccc1C(F)(F)F` [Example 80, (S)-3-{[5-(2-Fluoro-phenyl)-[1,2,4]oxadiazole-3-carbonyl]-amino}-3-(2-trifluoromethyl-phenyl)-propionic acid], the half-inhibitory concentration (IC50) was found to be 11.9 µM.
On to `O=C(O)C[C@H](NC(=O)c1noc(-c2cccc(F)c2F)n1)c1ccc(F)cc1` [Example 44, (S)-3-{[5-(2,3-Difluoro-phenyl)-[1,2,4]oxadiazole-3-carbonyl]-amino}-3-(4-fluoro-phenyl)-propionic acid], for which the IC50 came out at 5.33 µM.
`Cc1ccccc1[C@H](CC(=O)O)NC(=O)c1nn(C(C)C)c2ccccc12` [Example 6, (S)-3-[(1-Isopropyl-1H-indazole-3-carbonyl)-amino]-3-o-tolyl-propionic acid]: the IC50 came out at 0.351 µM.
In the case of `O=C(O)C[C@H](NC(=O)CCc1nc(-c2ccccc2F)no1)c1ccccc1` [Example 31, (S)-3-{3-[3-(2-Fluoro-phenyl)-[1,2,4]oxadiazol-5-yl]-propionylamino}-3-phenyl-propionic acid], the IC50 was over 10 µM.
As for `Cc1ccccc1[C@H](CC(=O)O)NC(=O)c1cc(-c2ccccc2)on1` [Example 2, (S)-3-[(5-Phenyl-isoxazole-3-carbonyl)-amino]-3-o-tolyl-propionic acid], the IC50 was 6.96 µM.
With `O=C(O)C[C@H](NC(=O)c1nc(-c2ccccc2)n(-c2ccccc2)n1)c1cccc(Cl)c1` [Example 104, (S)-3-(3-Chloro-phenyl)-3-[(1,5-diphenyl-1H-[1,2,4]triazole-3-carbonyl)-amino]-propionic acid], the IC50 turned out to be 0.128 µM.
`Cc1ccccc1[C@H](CC(=O)O)NC(=O)c1nn(C)cc1NS(=O)(=O)CC1CCCCC1` [Example 119, (S)-3-[(4-Cyclohexylmethanesulfonylamino-1-methyl-1H-pyrazole-3-carbonyl)-amino]-3-o-tolyl-propionic acid]: the IC50 was over 10 µM.
On to `Cc1ccccc1[C@H](CC(=O)O)NC(=O)c1nc(C)n(-c2ccccc2Cl)n1` [Example 57, (S)-3-{[1-(2-Chloro-phenyl)-5-methyl-1H-[1,2,4]triazole-3-carbonyl]-amino}-3-o-tolyl-propionic acid], for which the IC50 amounted to 0.261 µM.
Then `Cc1ccc([C@H](CC(=O)O)NC(=O)c2nc(C)n(-c3ccccc3Cl)n2)cc1` [Example 55, (S)-3-{[1-(2-Chloro-phenyl)-5-methyl-1H-[1,2,4]triazole-3-carbonyl]-amino}-3-p-tolyl-propionic acid], with 0.738 µM; and `O=C(O)C[C@H](NC(=O)c1nc(-c2ccccc2)oc1C(F)(F)F)c1cccc(Cl)c1Cl` [Example 122, (S)-3-(2,3-Dichloro-phenyl)-3-[(2-phenyl-5-trifluoromethyl-oxazole-4-carbonyl)-amino]-propionic acid], with 1.95 µM; and `Cc1oc(-c2ccccc2)nc1C(=O)N[C@@H](CC(=O)O)c1ccc(F)cc1` [Example 9, (S)-3-(4-Fluoro-phenyl)-3-[(5-methyl-2-phenyl-oxazole-4-carbonyl)-amino]-propionic acid], with 5.57 µM.
For `COc1cccc([C@H](CC(=O)O)NC(=O)c2nc(-c3ccccc3)n(-c3ccccc3)n2)c1` [Example 102, (S)-3-[(1,5-Diphenyl-1H-[1,2,4]triazole-3-carbonyl)-amino]-3-(3-methoxy-phenyl)-propionic acid], the half-inhibitory concentration (IC50) amounted to 0.44 µM.
On to `Cc1oc(-c2ccccc2F)nc1C(=O)NC(CC(=O)O)c1ccccc1Cl` (centres unmarked) [Example 62, 3-(2-Chloro-phenyl)-3-{[2-(2-fluoro-phenyl)-5-methyl-oxazole-4-carbonyl]-amino}-propionic acid], for which the IC50 is 3.41 µM.
Then `CCCc1nc(C(=O)N[C@@H](CC(=O)O)c2ccccc2C)nn1-c1ccccc1Cl` [Example 89, (S)-3-{[1-(2-Chloro-phenyl)-5-propyl-1H-[1,2,4]triazole-3-carbonyl]-amino}-3-o-tolyl-propionic acid], with 0.127 µM.
`Cc1ccccc1[C@H](CC(=O)O)NC(=O)c1cc(-c2ccccc2)n(Cc2ccccc2)n1` [Example 98, (S)-3-[(1-Benzyl-5-phenyl-1H-pyrazole-3-carbonyl)-amino]-3-o-tolyl-propionic acid]: the IC50 was 0.075 µM.
Then `Cc1ccccc1[C@H](CC(=O)O)NC(=O)c1nc(C2CC2)n(-c2ccccc2Cl)n1` [Example 82, (S)-3-{[1-(2-Chloro-phenyl)-5-cyclopropyl-1H-[1,2,4]triazole-3-carbonyl]-amino}-3-o-tolyl-propionic acid], with over 10 µM; and `O=C(O)C[C@H](NC(=O)c1nc(-c2ccccc2)oc1C(F)(F)F)c1cccc(F)c1` [Example 79, (S)-3-(3-Fluoro-phenyl)-3-[(2-phenyl-5-trifluoromethyl-oxazole-4-carbonyl)-amino]-propionic acid], with over 10 µM; and `O=C(O)C[C@@H](Cc1ccccc1)NC(=O)c1nc(-c2ccccc2F)no1` [Example 11, (R)-3-{[3-(2-Fluoro-phenyl)-[1,2,4]oxadiazole-5-carbonyl]-amino}-4-phenyl-butyric acid], with 4.89 µM.
In the case of `CC(C)c1oc(-c2ccccc2)nc1C(=O)NC(CC(=O)O)C1CCCCC1` (centres unmarked) [Example 34, 3-Cyclohexyl-3-[(5-isopropyl-2-phenyl-oxazole-4-carbonyl)-amino]-propionic acid], the IC50 was found to be 1.47 µM.
The figure for `Cc1oc(-c2ccccc2F)nc1C(=O)N[C@@H](CC(=O)O)c1ccccc1` [Example 10, (S)-3-{[2-(2-Fluoro-phenyl)-5-methyl-oxazole-4-carbonyl]-amino}-3-phenyl-propionic acid] is 2.32 µM; for `O=C(O)C[C@H](NC(=O)c1nc(-c2ccccc2)oc1C(F)(F)F)c1ccc(Cl)cc1Cl` [Example 123, (S)-3-(2,4-Dichloro-phenyl)-3-[(2-phenyl-5-trifluoromethyl-oxazole-4-carbonyl)-amino]-propionic acid] it is 14.4 µM.
For the molecule `Cc1ccc([C@H](CC(=O)O)NC(=O)c2noc(-c3ccccc3F)n2)cc1` [Example 12, (S)-3-{[5-(2-Fluoro-phenyl)-[1,2,4]oxadiazole-3-carbonyl]-amino}-3-p-tolyl-propionic acid], the IC50 was over 10 µM.
As for `O=C(O)C[C@H](NC(=O)c1noc(-c2ccccc2F)n1)c1ccc(F)cc1` [Example 19, (S)-3-(4-Fluoro-phenyl)-3-{[5-(2-fluoro-phenyl)-[1,2,4]oxadiazole-3-carbonyl]-amino}-propionic acid], the IC50 was determined as 8.58 µM.
